Columns and labels:
A2780 = assay: Antiproliferative activity against human A2780 cells; format: functional, cell-based
MCF7 = assay: Antiproliferative activity against human MCF7 cells at 10 uM relative to control; format: functional, cell-based
MDCK-II = assay: Antimigratory activity against MDCK2 cells assessed as inhibition of HGF-induced cell scattering at 1 uM pretreated for 18 hrs followed by HGF addition measured after 20 to 24 hrs by crystal violet staining-based assay relative to control; format: functional; conditions: Canis lupus familiaris

Row | EC50 (A2780) [nM] | EC50 (MCF7) [nM] | Compound | inhibition at 1 µM (MDCK-II) [%]
1 | > 10000 | > 10000 | CN(C(=O)c1cnccn1)c1ccc(-c2ccccc2)cn1 | –
2 | – | – | Cc1nc(NC(=O)c2cnc3cccnc3c2)cnc1Br | -25
3 | – | – | Cc1nc(NC(=O)c2ccc(N3CCCCC3)c([N+](=O)[O-])c2)ccc1I | 29.4
4 | – | – | Cc1nc(NC(=O)c2cncnc2)cnc1Br | -42
5 | > 10000 | > 10000 | O=C(Nc1ccc(-c2ccccc2)cn1)c1cncnc1-c1ccccc1 | –
6 | – | – | Cc1nc(NC(=O)c2cnc3cccnc3c2)ccc1Cl | 12
7 | – | – | O=C(Nc1ccc2ccccc2n1)c1cccc(C(F)(F)F)c1 | -59
8 | – | – | O=C(Nc1ccc2ccccc2n1)c1cnc2cccnc2c1 | -69
9 | – | – | Cc1cc(NC(=O)c2cccc([N+](=O)[O-])c2)ccc1O | 34.6
10 | – | – | Cc1nc(NC(=O)c2cccc(C(F)(F)F)c2)ccc1I | 72
11 | 29 | 109 | Cc1ncc(C(=O)Nc2ccc(-c3ccccc3)cn2)cn1 | –
12 | – | – | Cc1cc(NC(=O)c2cccc([N+](=O)[O-])c2C)c(C)cc1I | 36.1
13 | – | – | Cc1cc(NC(=O)c2ccc(C)c([N+](=O)[O-])c2)c(C)cc1I | 46.9
14 | > 10000 | > 10000 | Cc1ncncc1C(=O)Nc1ccc(-c2ccccc2)cn1 | –
15 | – | – | O=C(Nc1ncc[nH]1)c1nccs1 | -67
16 | 102 | 317 | O=C(Nc1ccc(-c2ccccc2)cn1)c1cnccn1 | –
17 | – | – | Cc1nc(NC(=O)c2cnco2)ccc1I | 32
18 | 78 | 220 | O=C(Nc1ccc(-c2ccccc2)cn1)c1cccnc1 | –
19 | – | – | O=C(Nc1ccc2ccccc2n1)c1cccc([N+](=O)[O-])c1 | -59
20 | > 10000 | > 10000 | O=C(Nc1ccc(-c2ccccc2)cc1)c1cncnc1 | –
21 | > 10000 | > 10000 | O=C(Nc1ccc(-c2ccc(Cl)cc2)cn1)c1cncnc1 | –
22 | – | – | Cc1nc(NC(=O)c2cccc([N+](=O)[O-])c2)cnc1Br | -33
23 | – | – | O=C(Nc1cscn1)c1cccc(C(F)(F)F)c1 | -73
24 | > 10000 | > 10000 | CSc1ncncc1C(=O)Nc1ccc(-c2ccccc2)cn1 | –
25 | 464 | 776 | O=C(Nc1ccc(C2CC2)cn1)c1cncnc1 | –
26 | – | – | O=C(Nc1ccc(-c2ccccc2)cn1)c1cccc([N+](=O)[O-])c1 | 29
27 | 196 | 605 | O=C(Nc1ccc(-c2ccco2)cn1)c1cncnc1 | –

Row | EC50 (A2780) [nM] | EC50 (MCF7) [nM] | Compound | inhibition at 1 µM (MDCK-II) [%]
28 | – | – | Cc1nc(NC(=O)c2cccc(C(F)(F)F)c2)cnc1Br | -6
29 | – | – | O=C(Nc1ncc[nH]1)c1cnco1 | -50
30 | 68 | 272 | O=C(Nc1ncc(-c2ccccc2)cn1)c1cncnc1 | –
31 | 612 | 651 | O=C(Nc1ccc(-c2ccccn2)cn1)c1cncnc1 | –
32 | – | – | Cc1nc(NC(=O)c2cc([N+](=O)[O-])ccc2N2CCOCC2)ccc1I | 31.7
33 | 49 | 149 | CNc1ncc(C(=O)Nc2ccc(-c3ccccc3)cn2)cn1 | –
34 | > 10000 | > 10000 | O=C(Nc1cncnc1)c1ccc(-c2ccccc2)cn1 | –
35 | – | – | O=C(Nc1ccc(-c2ccccc2)cn1)c1cccc(C(F)(F)F)c1 | -2
36 | – | – | Cc1cc(NC(=O)c2cccc([N+](=O)[O-])c2)ccc1I | 53.1
37 | > 10000 | > 10000 | O=C(Nc1ccc(-c2ccccc2)cn1)c1nccnc1-c1ccccc1 | –
38 | – | – | CCOc1ccc(C(=O)Nc2cccc(C)n2)cc1[N+](=O)[O-] | 31.7
39 | – | – | O=C(Nc1ncc[nH]1)c1cccc(C(F)(F)F)c1 | -72
40 | – | – | Cc1nc(NC(=O)c2cnco2)cnc1Br | -21
41 | – | – | Cc1nc(NC(=O)c2cccc(C(F)(F)F)c2)ccc1Cl | -13
42 | – | – | CCOc1ccc(C(=O)Nc2ccc(I)cn2)cc1[N+](=O)[O-] | 69.9
43 | – | – | Cc1nc(NC(=O)c2cnco2)ccc1Cl | -35
44 | > 10000 | > 10000 | O=C(Cc1cncnc1)Nc1ccc(-c2ccccc2)cn1 | –
45 | – | – | Cc1nc(NC(=O)c2cncc([N+](=O)[O-])c2)ccc1I | 21
46 | – | – | O=C(Nc1ccc(-c2ccccc2)cn1)c1cnco1 | -10
47 | 271 | 205 | O=C(Nc1ccc(-c2ccoc2)cn1)c1cncnc1 | –
48 | – | – | O=C(Nc1cscn1)c1cncnc1 | -103
49 | – | – | Cc1nc(NC(=O)c2cncc([N+](=O)[O-])c2)cnc1Br | -26
50 | – | – | Cc1nc(NC(=O)c2cncnc2)ccc1Cl | -18
51 | – | – | Cc1nc(NC(=O)c2cncc([N+](=O)[O-])c2)ccc1Cl | -20
52 | 1530 | > 10000 | O=C(Nc1ccc(-c2ccccc2)cn1)c1cnc(-c2ccco2)nc1 | –
53 | – | – | O=C(Nc1ccc2ccccc2n1)c1nccs1 | -51
54 | – | – | O=C(Nc1ccc(-c2ccccc2)cn1)c1cnc2cccnc2c1 | 181

Row | EC50 (A2780) [nM] | EC50 (MCF7) [nM] | Compound | inhibition at 1 µM (MDCK-II) [%]
55 | – | – | Cc1cc(C)nc(NC(=O)c2cccc([N+](=O)[O-])c2)c1 | 52.5
56 | – | – | Cc1nc(NC(=O)c2ccc(N3CCCC3)c([N+](=O)[O-])c2)ccc1I | 44
57 | > 10000 | > 10000 | O=C(Nc1ccc(-c2ccccc2)cn1)c1ccncn1 | –
58 | – | – | Cc1nc(NC(=O)c2cccc([N+](=O)[O-])c2)ccc1Cl | -5
59 | – | – | Cc1nc(NC(=O)c2cccc([N+](=O)[O-])c2)ccc1Br | 88.6
60 | > 10000 | 8330 | O=C(Nc1cnc(-c2ccccc2)cn1)c1cncnc1 | –
61 | – | – | O=C(Nc1cscn1)c1cnco1 | -54
62 | 5920 | 6970 | O=C(Nc1ccc(-c2cccnc2)cn1)c1cncnc1 | –
63 | – | – | Cc1nc(NC(=O)c2nccs2)ccc1Cl | -28
64 | > 10000 | > 10000 | O=C(Nc1ccc(-c2ccccc2)cn1)c1ncccn1 | –
65 | – | – | O=C(Nc1ccc(-c2ccccc2)cn1)c1nccs1 | -13
66 | – | – | Cc1nc(NC(=O)c2cnc3cccnc3c2)ccc1I | 33
67 | – | – | Cc1nc(NC(=O)c2nccs2)cnc1Br | -36
68 | – | – | O=C(Nc1ncc[nH]1)c1cccc([N+](=O)[O-])c1 | -77
69 | 255 | 127 | O=C(Nc1ccc(-c2ccccc2Cl)cn1)c1cncnc1 | –
70 | > 10000 | > 10000 | O=C(COc1cncnc1)Nc1ccc(-c2ccccc2)cn1 | –
71 | 60 | 66 | O=C(Nc1ccc(-c2ccsc2)cn1)c1cncnc1 | –
72 | – | – | O=C(Nc1ccc2ccccc2n1)c1cncnc1 | -55
73 | 4680 | > 10000 | O=C(Nc1ccc(-c2ccncc2)cn1)c1cncnc1 | –
74 | – | – | O=C(Nc1ccc(-c2ccccc2)cn1)c1cncc([N+](=O)[O-])c1 | -32
75 | – | – | O=C(Nc1ncc(Br)cc1Br)c1cccc([N+](=O)[O-])c1 | 42.4
76 | – | – | O=C(Nc1ccc2ccccc2n1)c1cnco1 | -58
77 | – | – | Cc1nc(NC(=O)c2nccs2)ccc1I | -20
78 | – | – | O=C(Nc1ccccn1)c1cccc([N+](=O)[O-])c1 | 45.3
79 | > 10000 | > 10000 | O=S(=O)(Nc1ccc(-c2ccccc2)cn1)c1cccnc1 | –
80 | – | – | O=C(Nc1ccc2ccccc2n1)c1cncc([N+](=O)[O-])c1 | -63

Row | Compound | EC50 (A2780) [nM] | EC50 (MCF7) [nM] | inhibition at 1 µM (MDCK-II) [%]
81 | c1ccc(-c2ccc(NCc3cncnc3)nc2)cc1 | > 10000 | > 10000 | –

From ChEMBL document CHEMBL4043145, “Pyridine-pyrimidine amides that prevent HGF-induced epithelial scattering by two distinct mechanisms” (Bioorg Med Chem Lett, 2017)
